According to the NIST ThermoML archive (doi:10.1016/j.jct.2018.02.014):
Numbers after ± are expanded uncertainties.

Assay: activity coefficient (dimensionless); of the first substance listed, at infinite dilution; xn = mol fraction of the nth substance listed
Conditions: 101.33 kPa, Liquid, Chromatography, x1 = 0

Row | SMILES | activity coefficient (328.15 K) | activity coefficient (338.15 K) | activity coefficient (348.15 K) | activity coefficient (358.15 K) | activity coefficient (368.15 K) | activity coefficient (318.15 K) | activity coefficient (298.15 K) | activity coefficient (308.15 K)
1 | CCOCC [diethyl ether] + CC[N+]1(C)CCOCC1.N#CN=C=[N-] | 28.5 ± 1.9 | 29.3 ± 2 | 30.1 ± 2.1 | 30.8 ± 2.1 | 31.6 ± 2.2 |  |  | 
2 | CC(C)OC(C)C [diisopropyl ether] + CC[N+]1(C)CCOCC1.N#CN=C=[N-] | 123 ± 8 | 125 ± 9 | 127 ± 9 | 128 ± 9 | 130 ± 9 |  |  | 
3 | CCCOCCC [dipropyl ether] + CC[N+]1(C)CCOCC1.N#CN=C=[N-] | 110 ± 8 | 112 ± 8 | 114 ± 8 | 116 ± 8 | 119 ± 8 |  |  | 
4 | CCO [ethanol] + CC[N+]1(C)CCOCC1.N#CN=C=[N-] | 1.2 ± 0.08 | 1.21 ± 0.08 | 1.21 ± 0.08 | 1.22 ± 0.08 | 1.22 ± 0.08 | 1.2 ± 0.08 |  | 
5 | CCOC(C)=O [ethyl acetate] + CC[N+]1(C)CCOCC1.N#CN=C=[N-] | 5.93 ± 0.4 | 6.19 ± 0.42 | 6.45 ± 0.44 | 6.71 ± 0.46 | 6.96 ± 0.47 | 5.67 ± 0.39 |  | 
6 | CCc1ccccc1 [ethylbenzene] + CC[N+]1(C)CCOCC1.N#CN=C=[N-] | 15.3 ± 1 | 15.5 ± 1.1 | 15.7 ± 1.1 | 15.8 ± 1.1 | 16 ± 1.1 | 15.1 ± 1 |  | 
7 | CCCCCCC [heptane] + CC[N+]1(C)CCOCC1.N#CN=C=[N-] | 645 ± 44 | 574 ± 40 |  |  |  | 729 ± 50 | 953 ± 66 | 831 ± 57
8 | C=CCCCC [hex-1-ene] + CC[N+]1(C)CCOCC1.N#CN=C=[N-] | 152 ± 10 | 141 ± 10 |  |  |  | 163 ± 11 | 193 ± 13 | 177 ± 12
9 | CCCCCC [hexane] + CC[N+]1(C)CCOCC1.N#CN=C=[N-] |  |  |  |  |  | 482 ± 33 | 608 ± 42 | 539 ± 37
10 | CC(C)c1ccccc1 [isopropylbenzene] + CC[N+]1(C)CCOCC1.N#CN=C=[N-] | 26.9 ± 1.8 | 26.9 ± 1.8 | 26.9 ± 1.8 | 26.9 ± 1.8 | 26.9 ± 1.8 | 27 ± 1.8 |  | 
11 | CO [methanol] + CC[N+]1(C)CCOCC1.N#CN=C=[N-] | 0.631 ± 0.044 | 0.645 ± 0.044 | 0.659 ± 0.045 | 0.672 ± 0.046 | 0.684 ± 0.046 | 0.617 ± 0.043 |  | 
12 | CCCC(=O)OC [methyl butanoate] + CC[N+]1(C)CCOCC1.N#CN=C=[N-] | 9.53 ± 0.65 | 9.79 ± 0.67 | 10 ± 0.7 | 10.3 ± 0.7 | 10.5 ± 0.7 | 9.27 ± 0.63 |  | 
13 | COC(C)=O [methyl ethanoate] + CC[N+]1(C)CCOCC1.N#CN=C=[N-] | 3.02 ± 0.21 | 3.18 ± 0.22 | 3.34 ± 0.23 | 3.5 ± 0.24 | 3.65 ± 0.25 | 2.86 ± 0.2 |  | 
14 | CCC(=O)OC [methyl propanoate] + CC[N+]1(C)CCOCC1.N#CN=C=[N-] | 5.36 ± 0.37 | 5.59 ± 0.38 | 5.82 ± 0.4 | 6.04 ± 0.41 | 6.26 ± 0.43 | 5.12 ± 0.35 |  | 
15 | CC1CCCCC1 [methylcyclohexane] + CC[N+]1(C)CCOCC1.N#CN=C=[N-] | 263 ± 18 | 242 ± 17 | 224 ± 15 | 208 ± 14 | 194 ± 13 | 288 ± 20 |  | 
16 | CCCCCCCCC [nonane] + CC[N+]1(C)CCOCC1.N#CN=C=[N-] | 1350 ± 93 | 1190 ± 82 | 1050 ± 73 | 945 ± 65 | 850 ± 59 | 1540 ± 110 |  | 
17 | C=CCCCCCC [oct-1-ene] + CC[N+]1(C)CCOCC1.N#CN=C=[N-] | 445 ± 31 | 402 ± 28 | 364 ± 25 | 333 ± 23 | 307 ± 21 | 496 ± 34 |  | 
18 | CCCCCCCC [octane] + CC[N+]1(C)CCOCC1.N#CN=C=[N-] | 1010 ± 70 | 903 ± 62 | 814 ± 56 | 737 ± 51 | 672 ± 46 | 1130 ± 78 |  | 
19 | CCCCCO [pentan-1-ol] + CC[N+]1(C)CCOCC1.N#CN=C=[N-] | 4.7 ± 0.32 | 4.63 ± 0.32 | 4.56 ± 0.31 | 4.49 ± 0.31 | 4.43 ± 0.3 | 4.78 ± 0.33 |  | 
20 | CCCC(C)=O [pentan-2-one] + CC[N+]1(C)CCOCC1.N#CN=C=[N-] | 5.26 ± 0.36 | 5.45 ± 0.37 | 5.63 ± 0.38 | 5.81 ± 0.4 | 5.98 ± 0.41 | 5.08 ± 0.35 |  | 
21 | CCC(=O)CC [pentan-3-one] + CC[N+]1(C)CCOCC1.N#CN=C=[N-] | 5.44 ± 0.37 | 5.64 ± 0.38 | 5.84 ± 0.4 | 6.03 ± 0.41 | 6.23 ± 0.42 | 5.23 ± 0.36 |  | 
22 | CCCO [propan-1-ol] + CC[N+]1(C)CCOCC1.N#CN=C=[N-] | 1.85 ± 0.12 | 1.84 ± 0.12 | 1.84 ± 0.12 | 1.84 ± 0.12 | 1.83 ± 0.12 | 1.85 ± 0.12 |  | 
23 | CC(C)O [propan-2-ol] + CC[N+]1(C)CCOCC1.N#CN=C=[N-] | 2 ± 0.14 | 1.99 ± 0.14 | 1.97 ± 0.13 | 1.96 ± 0.13 | 1.95 ± 0.13 | 2.02 ± 0.14 |  | 
24 | CCCc1ccccc1 [propylbenzene] + CC[N+]1(C)CCOCC1.N#CN=C=[N-] | 29.1 ± 2 | 29.1 ± 2 | 29.1 ± 2 | 29.2 ± 2 | 29.2 ± 2 | 29.2 ± 2 |  | 
25 | c1ccncc1 [pyridine] + CC[N+]1(C)CCOCC1.N#CN=C=[N-] | 1.81 ± 0.12 | 1.88 ± 0.13 | 1.96 ± 0.13 | 2.03 ± 0.14 | 2.1 ± 0.14 | 1.74 ± 0.12 |  | 
26 | C=Cc1ccccc1 [styrene] + CC[N+]1(C)CCOCC1.N#CN=C=[N-] | 6.59 ± 0.45 | 6.81 ± 0.46 | 7.01 ± 0.48 | 7.22 ± 0.49 | 7.43 ± 0.51 | 6.38 ± 0.43 |  | 
27 | C1CCOC1 [tetrahydrofuran] + CC[N+]1(C)CCOCC1.N#CN=C=[N-] | 3.44 ± 0.23 | 3.57 ± 0.24 | 3.7 ± 0.25 | 3.82 ± 0.26 | 3.95 ± 0.27 | 3.3 ± 0.22 |  | 
28 | c1ccsc1 [thiophene] + CC[N+]1(C)CCOCC1.N#CN=C=[N-] | 2.36 ± 0.16 | 2.48 ± 0.17 | 2.59 ± 0.18 | 2.71 ± 0.18 | 2.82 ± 0.19 | 2.24 ± 0.15 |  | 
29 | Cc1ccccc1 [toluene] + CC[N+]1(C)CCOCC1.N#CN=C=[N-] | 8.1 ± 0.55 | 8.33 ± 0.57 | 8.56 ± 0.58 | 8.77 ± 0.6 | 8.99 ± 0.61 | 7.87 ± 0.54 |  | 
30 | C=COC(C)=O [vinyl acetate] + CC[N+]1(C)CCOCC1.N#CN=C=[N-] | 4.41 ± 0.3 | 4.6 ± 0.31 | 4.78 ± 0.33 | 4.97 ± 0.34 | 5.15 ± 0.35 | 4.22 ± 0.29 |  | 
